Test results reported in patent EP4178570B1, “VETERINARY COMPOSITIONS FOR PREVENTING AND/OR TREATING LEISHMANIOSIS” (priority 2020, dated 2022).
Several values for one entry are separate records, joined by “and”; a condition that tells them apart may be missing. Identical values can stand only once.

What was measured:
[1] = tested on: anti-L. infantum specific immunoglobulins G (IgG); assay: Serological monitoring by quantitative IFAT in the field trial; type: in vivo, dogs; details: for Leishmania-antibody titers (mean ± SD), IFAT: artesunate 25 mg/kg orally 6 days, Glucantime 100 mg/kg s.c. 28 days + allopurinol 30 mg/kg orally one month
Description: (§1) Selected dogs were included randomly to one of the two treatment arms. Dogs (N=26) in the Group 1: (positive control) received 100 mg/kg Antimoniate of meglumine (Glucantime®, Merial, France) daily for 28 days subcutaneously, and 30 mg/kg allopurinol (Allopurinol Arraw® 300 mg, France) orally daily for one month. Dogs (N=16) in the Group 2: (chemotherapy of the invention) received 25 mg/kg artesunate (Asu-Denk®; Denk Pharma, Germany) orally for 6 days. […] Dogs were followed up for 180 days (Figure 1).
(§2) Animals were checked on days D0, D+30, D+90 and D+180 after the treatment had started and blood samples were collected each time-points. Clinical signs and lesions associated with leishmaniosis, infection status (parasite load-qPCR and serological) were evaluated and monitored in these points.
At day 0, the immunochromatographic based qualitative rapid test WITNESS® Leishmania (Zoetis, France) was performed according to the manufacturer's instructions using one drop (10 µL) of whole blood from each dog directly after sampling. Quantitative IFAT for the titration of anti-L. infantum specific immunoglobulins G (IgG) was performed on sera for the monitoring as described previously. Briefly, plate wells were sensitized by 20 µL of L. infantum commercial antigens (Zoetis, France). After dilution to 1:50, 20 µl of every serum dilution was applied per well and plates were incubated for 30 min at 37 °C. Plates were washed twice with PBS for 5 min and once with distilled water. 20 µL of IgG anti-dog conjugated with fluorescein isothiacyanate (FITC) (Sigma-Aldrich, St Louis, MO, USA) were added into each well. The plates were incubated for 30 min at 37 °C in the dark. After another washing step, some drops of mounting medium were added on the cover slips and reading was performed. To avoid errors of observation, all samples were examined by two different investigators and positive and negative controls were added in each plate. All samples negative at 1:50 were considered negative. Positive results were further investigated using a […] serial dilution IFAT at 1:100 to 1:1600. At this point, the samples were classified as a high positive for L. infantum (> 1:1600).

L. infantum DNA = assay: Parasite load-qPCR in blood (kDNA) in the field trial; type: in vivo, dogs; parameters: Parasitemia (% of reduction): concentration or dose not given beside the values; details: for Parasitemia No. Leish/mL of blood / Parasitemia (% of reduction): individual dogs (one table line per dog); for Parasitemia No. Leish/mL of blood: artesunate 25 mg/kg orally 6 days, Glucantime 100 mg/kg s.c. 28 days + allopurinol 30 mg/kg orally one month
Description: as §1, §2
Blood samples collected in each time-point were analyzed for quantification of parasitic load by qPCR using primers and probe for detection and quantification of L. infantum DNA, targeting a conserved region of the kinetoplast minicircle DNA (kDNA) (several 1000's-fold repeated sequence). Prior to DNA extraction, 200 µL of blood were digested with proteinase K and incubated at +56°C overnight. Extraction was performed using a commercial DNA extraction kit (QIAamp DNA Mini Kit®, [Qiagen, Courtaboeuf, France]) and performed on BIOROBOT EZ1 (Qiagen, Qiagen, Courtaboeuf, France) per the manufacturer's instructions. DNA was eluted in 200 µl of distilled water and stored at -20°C until analysis. qPCR was prepared and performed as follows: 20 µL final volume containing 10 µL of Eurogentec Master Mix Roche (Eurogentec, Liège, Belgium), […] of each primer and the probe, 0.5 µL UDG, 3 µL of distilled water DNAse and RNAse free, and 5 µl of the DNA sample, was amplified in a CFX96 Real-Time system (BioRad Laboratories, Foster City, CA, USA) using the following thermal profile: one incubation step at 50°C for two minutes and an initial denaturation step at 95°C for three minutes, followed by 40 cycles of denaturation at 95°C for 15 seconds and annealing extension at 60°C for 30 seconds. Quantification was based on a standard curve which was 8 folds-serial dilution of plasmid of 10^8 copy of DNA/mL from the kDNA region, equivalent of 10000 parasites/mL; 5 µl of serial dilutions ranging from 10000 to 0.001 parasites/mL, was introduced into reaction tubes. Results were expressed as the number of Leishmania parasites present in 1 ml of blood, taking in account the volume (200 µl of blood) and the elution (200 µl) introduced during the extraction process.

[2] = tested on: L. infantum life stage forms (promastigote and amastigote); details: Cortes et al., 2015; cited from earlier work
L. infantum = assay: Clinical evaluation (clinical score) in open-label randomized comparative clinical field trial of canine leishmaniosis; type: in vivo, dogs
Description: This was an open-label randomized comparative clinical field trial conducted in the north of Algeria. Prevalence observed in this area was 36%. Client-owned dogs of any age, breed, or gender were enrolled and 11 veterinary practitioners were responsible of the monitoring. All dogs had previously been naturally infected by L. infantum and presented clinical signs. The dogs were fully monitored and treatment could be changed to antimoniate meglumine/allopurinol at the owner's request if clinical impairment was noticed. A total of 187 dogs were enrolled for CanL. Among them, 42 adult sick dogs (30 males and 12 females), 3.8 years average age (min=1, max=11 years), weighing between 3-37 kg and of different breeds (8 german shepherd, 1 belgian shepherd malinois, 2 sloughy, 5 pointers, 6 braques, 1 bagnole, 1 americain staff, 1 beagle and 17 mixed breeds), were selected for this study.
Main inclusion criteria were: i) Dogs with at least two clinical manifestations related to CanL as detailed in the following Table 1) and ii) Dogs with positive serology for Leishmania by the immunochromatographic based qualitative rapid test WITNESS® Leishmania (Zoetis, France) and/or the quantitative indirect immunofluorescence antibody test (IFAT≥ 100) or positive PCR result obtained in blood.
Efficacy criteria were determined by reduction in clinical scores (i.e. the sum of clinical scores was lower than before treatment), in decreasing of parasite DNA and Leishmaniaspecific antibody titers. The score was defined according to the severity of each clinical sign and the final value was obtained from the sum of all the values (Table 1). Quantitative parasite load was estimated through qPCR and the antibody titers through quantitative IFAT. Table 1: Clinical signs related to CanL defined to evaluate the clinical scores of dogs.
Each manifestation was assigned a severity score ranging from 0 to 3, where 0 = none, 1 = mild, 2 = moderate, and 3 = severe (maximum total clinical score = 21). Mortality related to CanL was assessed by the highest score (22).
as §1, §2
The efficacy of treatments was assessed at each time-point based on the clinical response to treatment (evolution of clinical scores over time and the percentage reduction of the total clinical score). For each dog, the same veterinarian conducted all clinical evaluations to maintain consistency. Mortality due to CanL constitutes the higher score (22). The percentage of reduction was calculated according to the formula: Percentage reduction of CS % = (CSatD+XX−CSatD+0)/CS at D + 0) × 100 [formula]

[3] = D+30, artesunate 25 mg/kg orally 6 days (n=15), Glucantime 100 mg/kg s.c. 28 days + allopurinol 30 mg/kg orally one month (n=26)
[4] = D+30, mortality related to CanL included, artesunate 25 mg/kg orally 6 days (n=15), Glucantime 100 mg/kg s.c. 28 days + allopurinol 30 mg/kg orally one month (n=26)
[5] = D+90, artesunate 25 mg/kg orally 6 days (n=15), Glucantime 100 mg/kg s.c. 28 days + allopurinol 30 mg/kg orally one month (n=23)
[6] = D+90, mortality related to CanL included, artesunate 25 mg/kg orally 6 days (n=15), Glucantime 100 mg/kg s.c. 28 days + allopurinol 30 mg/kg orally one month (n=23)
[7] = D+180, artesunate 25 mg/kg orally 6 days (n=15), Glucantime 100 mg/kg s.c. 28 days + allopurinol 30 mg/kg orally one month (n=22)
[8] = D+180, mortality related to CanL included, artesunate 25 mg/kg orally 6 days (n=15), Glucantime 100 mg/kg s.c. 28 days + allopurinol 30 mg/kg orally one month (n=22)

Compound: C[C@H]1[C@H](OC(=O)CCC(=O)O)O[C@@H]2O[C@@]3(C)CC[C@H]4[C@H](C)CC[C@@H]1[C@@]24OO3 [Artesunate]
- Leishmania-antibody titers (mean ± SD), IFAT ([1]; D+30): 128.57 ± 212.78
- dogs that became seronegative ([1]; D+ 30, artesunate 7/14, Glucantime/allopurinol 4/26): 50%
- dogs with diminution in antibody titers ([1]; D+ 30, artesunate 11/14, Glucantime/allopurinol 15/26): 78.57%
- Leishmania-antibody titers (mean ± SD), IFAT ([1]; D+ 180): 37.50 ± 60.77
- dogs turned seronegative ([1]; end of the follow-up, Group 1 5/17, Group 2 7/12, P-Value 0.227): 58.33%
- percentage of reduction in antibody titers, comparison of groups ([1]; end of the study, P <0.0001): higher percentage of reduction
- Parasitemia No. Leish/mL of blood (L. infantum DNA; D+30): 0 No. Leish/mL of blood and 14 No. Leish/mL of blood and 44 No. Leish/mL of blood and 1,7 No. Leish/mL of blood and 0,17 No. Leish/mL of blood
- Parasitemia (% of reduction) (L. infantum DNA; D+30 versus D0): 100% and 19,54% and 63,93% and 99,27% and 98,45%
- Parasitemia No. Leish/mL of blood (L. infantum DNA; D+ 90): 0 No. Leish/mL of blood (3×) and 29 No. Leish/mL of blood
- Parasitemia (% of reduction) (L. infantum DNA; D+ 90 versus D0): 100% (3×) and -66,67%
- Parasitemia No. Leish/mL of blood (L. infantum DNA; D+ 180): 0 No. Leish/mL of blood
- Parasitemia (% of reduction) (L. infantum DNA; D+ 180 versus D0): 100%
- initially PCR-positive dogs that turned out to be Leishmania-negative (L. infantum DNA; qPCR in blood, over-time after treatment, dogs negative / dogs positive at D0): 5/5
- in vitro activity against L. infantum life stage forms (promastigote and amastigote) [2]: in vitro activity
- mean percentage of reduction of clinical score, comparison between the two groups (L. infantum; D+30, D+90 and D+180, p<0.0001 (Mann-Whitney)): More improvement
- PARTIAL AMELIORATION (%) (L. infantum; [3]): 80%
- PARTIAL AMELIORATION, number of dogs (L. infantum; [3]): 12
- AGGRAVATION (%) (L. infantum; [4]): 20%
- AGGRAVATION, number of dogs (L. infantum; [4]): 3
- COMPLETE AMELIORATION (%) (L. infantum; [5]): 20%
- COMPLETE AMELIORATION, number of dogs (L. infantum; [5]): 3
- NO CHANGE (%) (L. infantum; [5]): 6.66%
- NO CHANGE, number of dogs (L. infantum; [5]): 1
- PARTIAL AMELIORATION (%) (L. infantum; [5]): 53.33%
- PARTIAL AMELIORATION, number of dogs (L. infantum; [5]): 8
- AGGRAVATION (%) (L. infantum; [6]): 20%
- AGGRAVATION, number of dogs (L. infantum; [6]): 3
- PARTIAL AMELIORATION (%) (L. infantum; D+180 (6 months following up), artesunate 25 mg/kg orally 6 days (n=15), Glucantime 100 mg/kg s.c. 28 days + allopurinol 30 mg/kg orally one month (n=22)): 46.66%
- COMPLETE AMELIORATION (%) (complete recovery, CS of 0) (L. infantum; [7]): approximately 26.66%
- COMPLETE AMELIORATION, number of dogs (L. infantum; [7]): 4
- PARTIAL AMELIORATION, number of dogs (L. infantum; [7]): 7
- COMPLETE AMELIORATION (%) (complete recovery, CS of 0) (L. infantum; D+180, artesunate 25 mg/kg orally 6 days (n=15), Glucantime 100 mg/kg s.c. 28 days + allopurinol 30 mg/kg orally one month (n=22), listed as ARTESUNATE): 26.66%
- AGGRAVATION (%) (clinical aggravation rates) (L. infantum; [8]): 26.66%
- AGGRAVATION, number of dogs (L. infantum; [8]): 4
- mortality (L. infantum; D+180, part of the aggravation rate, artesunate 2/15, control group 4/22): 13.33%
- dogs died with increasing in the clinical signs related to CanL (L. infantum; between D+60 after the beginning of treatments and the visit D+90): two

Compound: CC1CCC2C(C)C(OC(=O)CCC(=O)O)OC3OC4(C)CCC1C32O4 (centres unmarked) [deoxygenated artesunate]
- in vitro activity against L. infantum life stage forms (promastigote and amastigote) [2]: in vitro activity

Compound: CC1CCC2C(C)C(O)OC3OC4(C)CCC1C32O4 (centres unmarked) [deoxygenated dihydroartemisinin]
- in vitro activity against L. infantum life stage forms (promastigote and amastigote) [2]: in vitro activity
